Assay [1] deals with T1, JAK3 (Homo sapiens, UniProt P52333).
T1 construct: JH1 domain
The experiment in a line: total tyrosine, STAT3 and STAT1 phosphorylation in HEK293T over-expressing JAK3-JH1, Western blot. It is filed as cell-based. In general terms: In western blotting, separated proteins are transferred to a membrane and probed.

For assay [2], the target named is T2, Tyk2 (Homo sapiens, UniProt P29597).
T2 construct: JH1 tyrosine kinase domain, C-terminal Flag-His tag, purified from HEK293T
T2 sequence (P29597 880-1187 limits assumed): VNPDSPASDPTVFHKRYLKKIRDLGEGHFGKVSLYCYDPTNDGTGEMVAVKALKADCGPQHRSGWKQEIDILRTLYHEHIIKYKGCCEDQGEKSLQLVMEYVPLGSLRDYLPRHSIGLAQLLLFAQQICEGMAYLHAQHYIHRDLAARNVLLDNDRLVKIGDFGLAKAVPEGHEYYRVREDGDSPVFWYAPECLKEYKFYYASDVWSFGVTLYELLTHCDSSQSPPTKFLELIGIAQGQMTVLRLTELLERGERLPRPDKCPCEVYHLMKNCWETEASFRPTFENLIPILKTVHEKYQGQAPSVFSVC
The experiment in a line: in vitro kinase assay with purified Tyk2-JH1 and recombinant hSTAT3 substrate, Western blot pTyr705-STAT3 ([…]). It is filed as biochemical.

Assay [3] has as its target T3, JAK1 (Homo sapiens, UniProt P23458).
T3 construct: JH1 domain
The experiment in a line: total tyrosine, STAT3 and STAT1 phosphorylation in HEK293T over-expressing JAK1-JH1, Western blot. It is filed as cell-based.

Assay [4] deals with c-Src (Homo sapiens, UniProt P12931). The experiment in a line: phosphotyrosine Western blot of immunoprecipitated Flag-c-Src from treated HEK293T cells ([…], […] h). The assay is classed as cell-based.
Sequence of c-Src (P12931 2-536): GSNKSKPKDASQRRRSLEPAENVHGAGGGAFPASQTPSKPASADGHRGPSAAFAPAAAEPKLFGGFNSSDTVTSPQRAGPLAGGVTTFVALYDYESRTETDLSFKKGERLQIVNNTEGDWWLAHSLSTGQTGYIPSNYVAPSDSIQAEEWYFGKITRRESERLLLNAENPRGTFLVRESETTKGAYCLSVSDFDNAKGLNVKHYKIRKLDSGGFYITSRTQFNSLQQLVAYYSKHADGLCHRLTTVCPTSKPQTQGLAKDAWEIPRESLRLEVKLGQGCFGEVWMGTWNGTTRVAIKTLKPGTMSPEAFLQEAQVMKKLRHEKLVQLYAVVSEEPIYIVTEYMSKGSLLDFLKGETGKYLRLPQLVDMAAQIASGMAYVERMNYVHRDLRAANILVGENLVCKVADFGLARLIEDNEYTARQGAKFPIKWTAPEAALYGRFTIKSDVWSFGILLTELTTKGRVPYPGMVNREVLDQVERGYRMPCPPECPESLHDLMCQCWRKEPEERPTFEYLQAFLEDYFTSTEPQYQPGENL

T3 sequence (P23458 875-1153 limits assumed): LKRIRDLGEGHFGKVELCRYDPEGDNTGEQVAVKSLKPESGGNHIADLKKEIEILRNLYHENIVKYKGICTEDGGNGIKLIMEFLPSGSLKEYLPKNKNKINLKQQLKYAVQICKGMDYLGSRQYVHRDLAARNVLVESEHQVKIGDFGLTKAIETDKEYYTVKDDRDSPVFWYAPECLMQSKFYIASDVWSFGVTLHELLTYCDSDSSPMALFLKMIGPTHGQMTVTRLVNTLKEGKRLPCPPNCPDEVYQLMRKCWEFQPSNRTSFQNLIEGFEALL
T1 sequence (P52333 781-1124 limits assumed): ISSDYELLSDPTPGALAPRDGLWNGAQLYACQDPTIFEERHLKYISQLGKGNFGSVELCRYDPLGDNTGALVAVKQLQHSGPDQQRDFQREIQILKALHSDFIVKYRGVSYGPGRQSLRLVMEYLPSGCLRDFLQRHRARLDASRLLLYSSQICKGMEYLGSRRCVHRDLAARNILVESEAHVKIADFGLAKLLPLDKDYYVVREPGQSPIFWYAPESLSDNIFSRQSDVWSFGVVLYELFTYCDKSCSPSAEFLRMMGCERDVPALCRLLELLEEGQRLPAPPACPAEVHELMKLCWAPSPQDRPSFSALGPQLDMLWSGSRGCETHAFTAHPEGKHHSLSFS

For `C/C=C(/C)C(=O)O[C@H]1[C@@H]2[C@H](C)C(=O)O[C@@H]2C[C@@H](C)[C@@H]2C=CC(=O)[C@]21C` [Brevilin A], the IC50 entry in assay [1] and in assay [3] was “IC50 measurements of four JAKs-JH1 truncated kinases” in each case. For the same compound, the “in vitro kinase assay with purified Tyk2-JH1 and recombinant hSTAT3 substrate, W” value in assay [2] is reported as “Western-Blot showed that Brevilin A inhibited Tyk2-JH1 kinase activity directly”.
Take `Cc1cc(Nc2ncc3cc(-c4c(Cl)cccc4Cl)c(=O)n(C)c3n2)ccc1F` [PD-180970]: in assay [4], the “phosphotyrosine Western blot of immunoprecipitated Flag-c-Src from treated HEK29” value is “IP results showed that PD180970 was able to decrease Src phosphorylation while Brevilin A was not”.

Values taken from publication PMC3660600, “Brevilin A, a Novel Natural Product, Inhibits Janus Kinase Activity and Blocks STAT3 Signaling in Cancer Cells” (PLoS ONE, 2013).
